Reference: US11198869B2, “Angelman syndrome antisense treatment” (The Texas A&M University System, priority 2017, dated 2021)

Tests used:
[1] = system: SNORD116; assay: SNORD116 steady state RNA (qRT-PCR) in GABAergic iPSC-derived neurons; assay type: cell-based, human; conditions: 10-point dose curve 1 nM-30 μM; 14 DIV to 20 DIV
Text: The effects of ASO-4 and Topotecan were then examined on the SNORD116, IPW, SNORD115, and SNORD109A RNAs, which are located upstream of the ASO-4 target region (see FIG. 1A).
GABAergic and glutamatergic induced pluripotent stem cell (iPSC) derived neural precursor cells (NRC-100-010-001 and GNC-301-030-001, Cellular Dynamics International, Madison Wis.) were differentiated into neurons according to the manufactures protocol. Briefly, neural precursor cells were thawed and resuspended in chemically defined medium and added to sterile-culture plates coated with poly-D-lysine and laminin. The medium was replaced 24 hr after plating and then one-half of the medium was replaced every 3-5 days afterwards.
For cultured iPSC-derived neurons, RNA isolation and cDNA synthesis were performed using the Cell-to-CT kit (Thermo Fisher Scientific) in a lysate volume of 55 μl.
The steady state RNA levels of target transcripts were measured using TaqMan quantitative reverse-transcription PCR (qRT-PCR) assays. […] Cycling conditions were 2 minutes at 50° C., 10 minutes at 95° C., and 40 cycles of 15 seconds at 95° C. and 1 minute at 60° C., with readings taken at the 60° C. step of every cycle. […] Data was retrieved and analyzed with the BIORAD CFX Maestro software (Bio-Rad Laboratories). […]

[2] = system: SNORD109A/B; assay: SNORD109A/B steady state RNA (qRT-PCR) in GABAergic iPSC-derived neurons; conditions: 10-point dose curve 1 nM-30 μM; 14 DIV to 20 DIV
[3] = system: SNORD115 host-gene transcript (SNHG115); assay: RNA-sequencing of Angelman syndrome iPSC neurons: SNHG115; assay type: cell-based, human; conditions: 30 μM, six days post-treatment, RNA-seq
Description: RNA was isolated using Qiagen RNAeasy Plus (74136, Qiagen, Hilden, Germany). RNA concentration was determined using Qubit Fluorometric Quantitation (Thermo Fisher Scientific) and RNA quality was assessed using a 4200 Agilent TapeStation (Agilent, Santa Clara, Calif.). RNA-sequencing libraries were generated using the Illumina TruSeq Stranded Total RNA kit (20020597, Illumina, Inc., San Diego, Calif.) according to the manufacturer's protocol. 75 base-pair paired-end sequencing was performed using a NextSeq 500 (IIlumina, San Diego, Calif.) at the Texas A&M Institute for Genome Sciences and Society Genomics core. Raw sequencing reads were processed using CASAVA. The resulting FASTQ sequences were examined using FASTQC. […]
To determine whether ASO-4.4.PS.L and ASO-6.1.PO-1.O affect the levels of RNA transcripts encoded by the PWS polycistronic transcript, RNA-sequencing was performed on AS iPS cells treated with each ASO and the steady state RNA levels of SNURF, SNRPN, the SNORD116 host-gene transcript (SNHG116), the SNORD116 snoRNAs, IPW, the SNORD115 host-gene transcript (SNHG115), the SNORD115 snoRNAs, and UBE3A-AS were quantified. UBE3A steady state RNA levels were also measured. […]

| Compound | effect on SNORD116 RNA levels (in words) [1] | effect on SNORD109A/B RNA levels (in words) [2] | Difference, SNH115G RNA level relative to vehicle [3] | Difference, SNH115G RNA level relative to vehicle ([3]; listed as ASO-6.1.PS-1.O) |
| --- | --- | --- | --- | --- |
| CC[C@@]1(O)C(=O)OCc2c1cc1n(c2=O)Cc2cc3c(CN(C)C)c(O)ccc3nc2-1 [Topotecan, reference compound] | significant effect on SNORD116, IPW, SNORD115, and SNORD109A/B RNA levels that was dose dependent | significant effect on SNORD116, IPW, SNORD115, and SNORD109A/B RNA levels that was dose dependent |  |  |
| C^O*U^O*G^O*G^O-t*g*t*c*a*a*c*a*a*g-C^O*C^O*A^O*A^o [ASO-6.1.PO-1.O] |  |  | significantly reduced | −0.55 |
| U^O*A^O*G^O*A^O*A^O*t*g*g*c*a*c*a*t*c*t*C^O*U^O*U^O*G^O*G^O [ASO-4] |  | significant effect on the RNA levels of IPW, SNORD115, and SNORD109A/B but not in a dose dependent manner |  |  |
